Among the data in PubChem BioAssay (NCI) are GI50 and TGI values, retold here.

Some test systems named below: MDA-MB-435; MDA-MB-231 breast; BT-549 breast; MDA-N.
Assay in all cases: NCI tumour cell line growth inhibition, 48 h

Several values for one entry are separate records, joined by “and”; a condition that tells them apart may be missing. Equal values may be shown once.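 Grown in 96-well plates, cells were treated for 48 hours with each compound at five concentrations. Insufficient inhibition: endpoint recorded as highest concentration tested. Abbreviation: GI50, concentration required for 50% inhibition of growth. TGI is the concentration that stops growth completely.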 A value given as a limit tells only on which side of the number the result lay.

Turning to `Oc1ccc(CCNc2nc3ccccc3c3[nH]c4ccccc4c23)cc1`, the values for the GI50 with MDA-MB-435, in the test with MDA-MB-231 breast and with BT-549 breast were 1.6 µM, 1.36 µM and 1.93 µM, respectively. In addition, the TGI in the test with MDA-MB-435 is 3.16 µM; with MDA-MB-231 breast, 2.97 µM; in the test with BT-549 breast it was 3.69 µM.

Regarding `COc1ccc(Cl)cc1Nc1nc(C(F)(F)F)ccc1C(=O)N/N=C/c1ccc(Cl)cc1`, the GI50 in the test on MDA-MB-435 was over 100 µM; with MDA-MB-231 breast it was 5.44 µM; in the test on BT-549 breast, 0.108 µM. In addition, the TGI in the test with MDA-MB-435 is over 100 µM; with MDA-MB-231 breast it was over 100 µM; in the test with BT-549 breast, 0.932 µM.

With `O=NNc1nc(-c2ccccn2)nc2ccccc12`, the TGI with MDA-MB-231 breast, in the test on BT-549 breast and in the test on MDA-N was over 100 µM throughout.

For the molecule `CN1CCN(Cc2ccc(NC(=O)c3cncc(C#Cc4cnc5cccnn45)c3)cc2C(F)(F)F)CC1`, the figures for the GI50 with MDA-MB-435, in the test with MDA-MB-231 breast and in the test on BT-549 breast were 1.13 µM, 0.798 µM and 1.74 µM, respectively. Moreover, the results for the TGI in the test on MDA-MB-435, in the test with MDA-MB-231 breast and in the test on BT-549 breast were 3.76 µM, 3.87 µM and 5.65 µM, respectively.

As to `COc1cccc2c(Nc3ccc(C(=O)NCCN4CCNCC4)cc3)cc(-c3ccccc3)nc12`, the GI50 is 35.9 µM with MDA-MB-435, 19.9 µM in the test with MDA-MB-231 breast and 35.1 µM in the test on BT-549 breast. Moreover, the TGI in the test with MDA-MB-435, in the test on MDA-MB-231 breast and in the test with BT-549 breast was over 100 µM in each case.

With `Brc1ccc2c(c1)-c1ccccc1C1=NCCN12`, the GI50 in the test on MDA-MB-435 is 1.06 µM; in the test on MDA-MB-231 breast, 1.73 µM; in the test with BT-549 breast, 1.88 µM. For the same molecule, the TGI is 2.45 µM in the test on MDA-MB-435, 4.29 µM in the test on MDA-MB-231 breast and 6.07 µM in the test on BT-549 breast.

For the molecule `Cn1c(=O)c(Oc2ccc(F)cc2F)cc2cnc(NC3CCC(O)CC3)nc21` (stereo not drawn), the GI50 in the test on MDA-MB-435, with MDA-MB-231 breast and with BT-549 breast was over 25 µM throughout. In addition, the TGI in the test on MDA-MB-435, in the test with MDA-MB-231 breast and in the test on BT-549 breast was over 25 µM in each case.

As to `COc1cc2nccc(Oc3ccc(NC(=O)C4(C(=O)Nc5ccc(F)cc5)CC4)cc3)c2cc1OC`, the GI50 in the test on MDA-MB-435 is 7.54 µM and 2.67 µM; in the test with MDA-MB-231 breast, > 10 µM and 3.1 µM; with BT-549 breast, > 10 µM and 8.8 µM. Besides, the TGI in the test with MDA-MB-435 is > 10 µM and 21.2 µM; in the test with MDA-MB-231 breast, over 40.6 µM; in the test with BT-549 breast it was > 10 µM and 72.4 µM.

Take `CCc1c[nH]c2ncnc(N3CC[C@](N)(CNC(=O)c4ccc(F)cc4F)C3)c12`: the GI50 was 12.8 µM in the test on MDA-MB-435, 48.5 µM in the test with MDA-MB-231 breast and 0.797 µM in the test with BT-549 breast. Further, the TGI in the test with MDA-MB-435 is over 79.7 µM; in the test on MDA-MB-231 breast, over 100 µM; in the test on BT-549 breast it was 18.1 µM.

For `CC(=O)Nc1ccc(C(=O)NN2C(=O)CSC2c2ccccc2)cc1` (stereo not drawn), the TGI with MDA-MB-435 was over 100 µM; in the test on MDA-MB-231 breast, over 100 µM; with BT-549 breast it was 83 µM; in the test with MDA-N, over 100 µM.

With `CC(=O)Nc1ccc(C(=O)COc2cccc(/C=C3\CCc4ccccc4C3=O)c2)cc1`, the values for the GI50 in the test on MDA-MB-435, with MDA-MB-231 breast and in the test on BT-549 breast were 5.58 µM, 18.7 µM and 17.6 µM, respectively. The figures for the TGI with MDA-MB-435, with MDA-MB-231 breast and in the test with BT-549 breast were 30 µM, 85.9 µM and 54.2 µM, respectively.

As to `O=C(Nc1cccc(C(F)(F)F)c1)Nc1ccc(OCc2nnc(-c3ccccc3)o2)c(F)c1`, in the test with MDA-MB-435, the GI50 was 7.51 µM and the TGI came out at 89.8 µM. Besides, in the test on MDA-MB-231 breast, the GI50 is 3.3 µM and the TGI amounted to 22.3 µM.

Consider `N#Cc1c(N/N=C/c2c(Cl)cccc2Cl)nc(N)nc1N1CCCC1`, for which, in the test with MDA-MB-231 breast, the GI50 was 3.25 µM and the TGI was found to be 42.2 µM. In addition, in the test on BT-549 breast, the GI50 is 11.3 µM and the TGI was over 100 µM.

For the molecule `CC1=C(C(=O)OC(C)(C)C)C(c2ccc([N+](=O)[O-])cc2)C(C(=O)OC(C)(C)C)=C(C)N1`, the TGI in the test with MDA-MB-435 came out at 57.9 µM; in the test on MDA-MB-231 breast, 41.4 µM; with BT-549 breast, 44.1 µM; in the test with MDA-N it was 48.6 µM.

Take `O=C(/C=C/N1CCN(c2cccc(Cl)c2)CC1)c1ccc(Cl)cc1`: the GI50 is 19.3 µM in the test on MDA-MB-435, 30 µM with MDA-MB-231 breast and 19.3 µM with BT-549 breast. The TGI in the test on MDA-MB-435 was 50.2 µM; in the test with MDA-MB-231 breast, over 100 µM; in the test on BT-549 breast it was 50.2 µM.

For the molecule `Cc1cccc2c1Oc1ncccc1C2NC(=O)CN(C)C` (stereo not drawn), the TGI in the test on MDA-MB-435 and in the test with BT-549 breast was over 10 µM throughout.

Consider `COc1cc(-c2nn(-c3cccc(NC(=O)c4cccc(C(F)(F)F)c4)c3)cc2-c2ccncc2)ccc1Cl`, for which, in the test on MDA-MB-231 breast, the GI50 was 1.24 µM and the TGI is 9.96 µM. For the same molecule, in the test on BT-549 breast, the GI50 is 2.87 µM and the TGI was 46.8 µM.

On to `Cc1c(-c2ccc(N3CCc4cccc(C(=O)Nc5nc6ccccc6s5)c4C3)nc2C(=O)O)cnn1CC12CC3CC(CC(C3)C1)C2`, for which, in the test on MDA-MB-435, the GI50 was 6.77 µM and the TGI is 28.3 µM. Further, in the test with BT-549 breast, the GI50 was 3.73 µM and the TGI turned out to be 16.4 µM.

Take `COc1cc2c(cc1OCCCN1CCN(CCCn3c4ccccc4c4ccccc43)CC1)N=C[C@@H]1CCCN1C2=O`: the GI50 with MDA-MB-435 is 0.0553 µM; in the test on MDA-MB-231 breast it was 0.217 µM; with BT-549 breast it was 0.0587 µM. For the same molecule, the results for the TGI with MDA-MB-435, with MDA-MB-231 breast and with BT-549 breast were 0.121 µM, 1.02 µM and 0.288 µM, respectively.

On to `Cn1c(=O)c(-c2c(Cl)cccc2Cl)cc2cnc(Nc3ccc(N4CCOCC4)cc3)nc21`, for which the results for the GI50 with MDA-MB-231 breast and in the test on BT-549 breast were under 0.0169 µM and 0.109 µM, respectively.

`O=C(c1ccccc1)c1ccc(N2C(=O)C3C4c5ccccc5C(/C=C/C(=O)c5ccccn5)(c5ccccc54)C3C2=O)cc1` (stereo not drawn): the figures for the GI50 in the test on MDA-MB-435, in the test with MDA-MB-231 breast and in the test with BT-549 breast were 2.9 µM, 2.34 µM and 2.62 µM, respectively. Further, the TGI in the test with MDA-MB-435 was 9.22 µM; in the test on MDA-MB-231 breast, 6.4 µM; in the test with BT-549 breast, 9.88 µM.

For `CCC(=C(c1ccc(OCCN(CC)CC)cc1)c1ccc(OCCN(CC)CC)cc1)c1ccc(Cl)cc1`, the GI50 in the test with MDA-MB-435 is 0.578 µM; in the test on MDA-MB-231 breast it was 0.573 µM; in the test with BT-549 breast it was 0.647 µM. For the same molecule, the TGI in the test with MDA-MB-435 was found to be 1.07 µM; in the test on MDA-MB-231 breast, 1.09 µM; with BT-549 breast it was 1.45 µM.

With `O=C1OC(c2ccccc2)=N/C1=C\c1ccc(N(CCCl)CCCl)cc1`, the TGI in the test on MDA-MB-435, in the test with MDA-MB-231 breast, in the test on BT-549 breast and in the test with MDA-N was over 100 µM throughout.
